Experimental data taken from patent publication US20150297482A1, “MALODOR COUNTERACTING COMPOSITIONS AND METHOD FOR THEIR USE TO COUNTERACT SWEAT MALODOR” (FIRMENICH SA, priority 2009, published 2015).
Where two headings read alike, the source gives them in different places.

System: Staphylococcus haemolyticus CNCM I-4170
Test: Protocol A: in-vitro malodor inhibition (free thiol groups from Cys-Gly precursor, DTNB absorbance at 412 nm)
Assay type: cell-based
From the text: Further details of such a screening and % inhibition measurement and definition are described further on in this application. The precursor used, which may also be in the form of a human sweat sample, typically generates malodorant sulfur compounds when acted upon by the Staphylococcus haemolyticus cells, or by a β-lyase present in such cells. The malodor inhibition coefficient, as defined herein, reflects the % of reduction in free SH groups generated in the above-mentioned medium by the enzymatic activity of the bacterial cells when in presence of the MOC ingredient or MOC composition in question, as compared to the same measurement in their absence. […] Alternatively, the bacterial cells can be replaced by a β-lyase present in said cells. […] Detection of enzymatic activity inhibition is measured via the sulfur groups, namely thiol groups, freed from the precursor bacterial transformation, by comparison with the reference experiment in the absence of the respective MOC ingredient, said sulfur groups being detected by interaction with DTNB, a known chemical detector system for thiols. The reaction can be monitored by absorbance reading at 412 nm. The procedure can be performed indifferently with either a purified or semi-purified enzyme or intact bacterial cells, as in the case described here. Malodor inhibition coefficient is measured as a function of the percentage of free thiol groups in the medium, over time, by an absorbance method, and reflects the reduction in malodor obtained in the presence of the MOC ingredients and compositions. […] At the end of the growth phase, the bacterial cells were harvested by centrifugation at 5000 rpm for 15 min. The cell pellet was then washed with 0.1 volumes of sterile potassium phosphate buffer 0.1 M, pH 7.5. […] The precursor was used at 0.17 mM final concentration. • Detection reagent DTNB • DTNB (5,5′-Dithio-bis-(2-nitrobenzoic acid; […]

[1] = Staphylococcus haemolyticus, CNCMI4170, 0.0012 w/v % in medium, read-out: Ingredient Malodor Inhibition Value (%)
[2] = Staphylococcus haemolyticus, CNCMI4170, 0.0025 w/v % in medium, read-out: Ingredient Malodor Inhibition Value (%)
[3] = Staphylococcus haemolyticus, CNCMI4170, 0.006 w/v % in medium, read-out: Ingredient Malodor Inhibition Value (%)
[4] = Staphylococcus haemolyticus, CNCMI4170, 0.0125 w/v % in medium, read-out: Ingredient Malodor Inhibition Value (%)
[5] = Staphylococcus haemolyticus, CNCMI4170, 0.025 w/v % in medium, read-out: Ingredient Malodor Inhibition Value (%)
[6] = Staphylococcus haemolyticus, CNCMI4170, 0.05 w/v % in medium, read-out: Ingredient Malodor Inhibition Value (%)
[7] = Staphylococcus haemolyticus, CNCMI4170, Table 2, 0.0012 w/v % in medium, read-out: Ingredient Malodor Inhibition Value (%)
[8] = Staphylococcus haemolyticus, CNCMI4170, Table 2, 0.005 w/v % in medium, read-out: Ingredient Malodor Inhibition Value (%)
[9] = Staphylococcus haemolyticus, CNCMI4170, Table 2, 0.0025 w/v % in medium, read-out: Ingredient Malodor Inhibition Value (%)
[10] = Staphylococcus haemolyticus, CNCMI4170, Table 2, 0.0125 w/v % in medium, read-out: Ingredient Malodor Inhibition Value (%)
[11] = Staphylococcus haemolyticus, CNCMI4170, Table 2, 0.025 w/v % in medium, read-out: Ingredient Malodor Inhibition Value (%)
[12] = Staphylococcus haemolyticus, CNCMI4170, Table 2, 0.05 w/v % in medium, read-out: Ingredient Malodor Inhibition Value (%)

Row | SMILES | inhibition at 0.0012 % [1] | inhibition at 0.0025 % [2] | inhibition at 0.006 % [3] | inhibition at 0.0125 % [4] | inhibition at 0.025 % [5] | inhibition at 0.0012 % [7] | inhibition at 0.005 % [8] | inhibition at 0.0025 % [9] | inhibition at 0.0125 % [10] | other results
1 | C=CC(C)(O)CCC=C(C)CCC=C(C)C (stereo not drawn) [Nerolidol] | 0% | 6.52% | 53.5% | 56.9% | 68.5% |  |  |  |  | inhibition at 0.05 % [6]: 66.8%
2 | CC(C=O)Cc1ccc(C(C)(C)C)cc1 (stereo not drawn) [Lilial ®, 3-(4-tert-butylphenyl)-2-methylpropanal] | 0.9% | 9.47% | 37.5% | 81% | 90% |  |  |  |  | 
3 | CCC(C)CCCC(C)(C)O (stereo not drawn) [Tetrahydromyrcenol] |  |  |  |  |  |  |  |  |  | Ingredient Malodor Inhibition Value (%) (0.0012 w/v % in medium): 0.00%; Ingredient Malodor Inhibition Value (%) (0.0025 w/v % in medium): 0.00%; Ingredient Malodor Inhibition Value (%) (0.006 w/v % in medium): 0.00%; Ingredient Malodor Inhibition Value (%) (0.0125 w/v % in medium): 0.00%; Ingredient Malodor Inhibition Value (%) (0.025 w/v % in medium): 41.38%; Ingredient Malodor Inhibition Value (%) (0.05 w/v % in medium): 72.56%; Ingredient Malodor Inhibition Value (%) (0.1 w/v % in medium): 66.63%
4 | C=CCCCCCCCCC=O [10-Undecenal] |  |  |  |  |  | 3% | 49.2% |  |  | 
5 | CC1=CC2CC(C=O)C1CC2C(C)C (stereo not drawn) [8-Isopropyl-6-methyl-bicyclo[2.2.2]oct-5-ene-2-carbaldehyde] |  |  |  |  |  | 18.9% | 76.9% | 28.3% | 84.5% | inhibition at 0.025 % [11]: 82.9%; inhibition at 0.05 % [12]: 88.2%
6 | CC(CCO)CC(C)(C)C (stereo not drawn) [3,5,5-Trimethyl-1-hexanol] | 0% | 0% | 0% | 0% | 35% |  |  |  |  | inhibition at 0.05 % [6]: 58.3%; inhibition at 0.1 % (Staphylococcus haemolyticus, CNCMI4170, 0.1 w/v % in medium, read-out: Ingredient Malodor Inhibition Value (%)): 62.9%
7 | CCCCCCCCC/C=C/C=O [(E)-2-Dodecenal] |  |  |  |  |  | 29.7% | 86.9% | 55.4% | 94% | inhibition at 0.0006 % (Staphylococcus haemolyticus, CNCMI4170, Table 2, 0.0006 w/v % in medium, read-out: Ingredient Malodor Inhibition Value (%)): 10.4%
8 | CC1(C)CCCC2(C)C1CCC1(C)OCCC12 (stereo not drawn) [Ambrox ®, 8,12-epoxy-13,14,15,16-tetranorlabdane] |  |  |  |  |  |  |  |  |  | Ingredient Malodor Inhibition Value (%) (0.0012 w/v % in medium): 0.00%; Ingredient Malodor Inhibition Value (%) (0.0025 w/v % in medium): 0.00%; Ingredient Malodor Inhibition Value (%) (0.05 w/v % in medium): 18.23%; Ingredient Malodor Inhibition Value (%) (0.1 w/v % in medium): 38.00%
9 | CC1=CC[C@H](/C=C/C(C)(C)C(C)O)C1(C)C (single isomer, unassigned; (-)) [(-)-(1′R,E)-3,3-Dimethyl-5-(2′,2′,3′-trimethyl-3′-cyclopenten-1′-yl)-4-penten-2-ol] |  |  |  |  |  |  |  |  |  | Ingredient Malodor Inhibition Value (%) (0.0012 w/v % in medium): 0.00%; Ingredient Malodor Inhibition Value (%) (0.0025 w/v % in medium): 27.39%; Ingredient Malodor Inhibition Value (%) (0.006 w/v % in medium): 75.11%; Ingredient Malodor Inhibition Value (%) (0.0125 w/v % in medium): 76.95%; Ingredient Malodor Inhibition Value (%) (0.025 w/v % in medium): 76.65%
10 | CC/C(=C\C[C@H]1CC=C(C)C1(C)C)CO [(-)-(2E)-2-Ethyl-4-[(1R)-2,2,3-trimethyl-3-cyclopenten-1-yl]-2-buten-1-ol] | 0% | 21.2% | 70.8% | 80% | 80.3% |  |  |  |  | 
11 | CCCCC/C=C/CCC=O [(E)-4-Decenal] |  |  |  |  |  | 22% | 66.6% | 28.2% | 90.1% | inhibition at 0.025 % [11]: 100%
12 | CC(C)c1cccc(C(C)CC=O)c1 (stereo not drawn) [3-(3-Isopropyl-1-phenyl)butanal] |  |  |  |  |  |  |  |  |  | Ingredient Malodor Inhibition Value (%) (Table 2, 0.0012 w/v % in medium): 16.63%; Ingredient Malodor Inhibition Value (%) (Table 2, 0.0025 w/v % in medium): 30.10%; Ingredient Malodor Inhibition Value (%) (Table 2, 0.005 w/v % in medium): 73.81%; Ingredient Malodor Inhibition Value (%) (Table 2, 0.0125 w/v % in medium): 95.51%; Ingredient Malodor Inhibition Value (%) (Table 2, 0.025 w/v % in medium): 99.45%; Ingredient Malodor Inhibition Value (%) (Table 2, 0.05 w/v % in medium): 97.34%
13 | CC1(C)C2CC=C(CCC=O)C1C2 (stereo not drawn) [3-(6,6-Dimethyl-bicyclo[3.1.1]hept-2-en-2-yl)propanal] |  |  |  |  |  | 0% | 82.9% | 4.58% | 96.7% | inhibition at 0.025 % [11]: 100%; inhibition at 0.05 % [12]: 96.3%
